Experimental data taken from patent publication US4705805A, “Antithrombotic agent” (priority 1978, dated 1987).
Like-named read-outs stand apart in the source and are kept apart here.

Columns and labels:
[1] = test system: rabbit blood platelets (platelet rich plasma), collagen-induced aggregation; assay: inhibition of platelet aggregation in rabbit platelet rich plasma (in vitro), induced by collagen; format: cell-based; conditions: Oryctolagus cuniculus, Platelet, read-out: percentage of inhibition, collagen; for inhibition at 1 µg/mL: 1 μg/ml; for inhibition at 3 µg/mL: 3 μg/ml; for inhibition at 10 µg/mL: 10 μg/ml
Experimental: (§1) In this example, the inhibition of platelet aggregation in rabbit platelet rich plasma (in vitro) is tested.
(§2) In this test, 9 vol. of blood is sampled from the carotid artery of rabbits (2 to 2.5 Kg) and placed in a silicon-coated flask containing 1 vol. of 3.8% sodium citrate. The thus obtained blood is centrifuged at 1,000 rpm for 15 minutes to obtain platelet rich plasma (referred to as "PRP" hereinafter). The aggregation of blood platelets is observed using an aggregometer (made by Bryston Co.) and the degree of aggregation after the addition of aggregation promoting substances is measured by nephelometry, i.e., through increase in light transmission.
(§3) The PRP (0.9 ml) is placed in a silicon-coated cuvett of the aggregometer. Then, 0.05 ml of physiological saline solution containing various concentrations of test reagents or control reagents is added and the mixture is allowed to stand for one minute. Compounds promoting aggregation are then added and the absorbancy of the solution is measured and the percent inhibition of aggregation is calculated according to the following equation: [formula] C: Transmittancy showing the maximum percent aggregation by physiological saline solution
(§4) D: Transmittancy showing the maximum percent aggregation by sample
(§5) Test for the inhibition of platelet aggregation induced by ADP, collagen and thrombin.

[2] = acute toxicity, Behrens-Karber's method; format: in vivo; conditions: in vivo; mouse, oral
Experimental: In this example, the acute toxicity of compounds of the invention is determined by Behrens-Karber's method using, 5 male dd-strain for each group weighing 20±1 g. A 0.3% CMC suspension of the test compound (concentration of the test compound: 100 mg/ml) is then orally administered to each mouse.

[3] = test system: rabbit blood platelets (platelet rich plasma), ADP-induced aggregation; assay: inhibition of platelet aggregation in rabbit platelet rich plasma (in vitro), induced by ADP; format: cell-based; conditions: Oryctolagus cuniculus, Platelet, read-out: percentage of inhibition, ADP; for inhibition at 3 µg/mL: 3 μg/ml; for inhibition at 10 µg/mL: 10 μg/ml
Experimental: as §1, §2, §3, §4, §5

[4] = test system: human platelet rich plasma, collagen-induced aggregation; assay: inhibition of platelet aggregation in human platelet rich plasma, induced by collagen; format: cell-based; conditions: human PRP, read-out: percentage inhibition, collagen; for inhibition at 10 µg/mL: 10 μg/ml; for inhibition at 30 µg/mL: 30 μg/ml; for inhibition at 100 µg/mL: 100 μg/ml
Experimental: as §2, §3, §4
(§6) In this example, the same procedures are repeated as in Example 10 except that human platelet rich plasma is used in place of rabbit platelet rich plasma.

[5] = test system: human platelet rich plasma, ADP-induced aggregation; assay: inhibition of platelet aggregation in human platelet rich plasma, induced by ADP; format: cell-based; conditions: human PRP, read-out: percentage inhibition, ADP; for inhibition at 30 µg/mL: 30 μg/ml; for inhibition at 100 µg/mL: 100 μg/ml
Experimental: as §2, §3, §4, §6

[6] = rabbit PRP, ADP 10^-5 M, 30 μg/ml
[7] = rabbit PRP, ADP 10^-5 M, 100 μg/ml

Structure (SMILES) | inhibition at 30 µg/mL ([1]; rabbit PRP, 30 μg/ml) [%] | LD50 [2] [mg/kg] | inhibition at 30 µg/mL [3, 6] [%] | inhibition at 3 µg/mL ([1]; rabbit PRP) [%] | inhibition at 10 µg/mL ([1]; rabbit PRP) [%] | inhibition at 100 µg/mL ([1]; rabbit PRP, 100 μg/ml) [%] | inhibition at 10 µg/mL ([3]; rabbit PRP, ADP 10^-5 M) [%] | inhibition at 100 µg/mL [3, 7] [%] | also measured
O=C(c1ccccc1SSc1ccccc1C(=O)N1CCN(CC=Cc2ccccc2)CC1)N1CCN(CC=Cc2ccccc2)CC1 [Compound XXX, 2,2'-dithiobis[N'-(3-phenyl-propene-1-yl)benzpiperazide]] | 40 | ≥ 1000 | 17 |  |  |  |  |  | 
O=C(NCCO)c1cc(Cl)ccc1SSc1ccc(Cl)cc1C(=O)NCCO [Compound XXXI, 2,2'-dithiobis(5-chloro-N-2-hydroxyethyl)benzamide] | 100 | ≥ 1000 | 80 | 100 | 100 | 100 | 43 | 100 | inhibition at 10 µg/mL [4]: 12%; inhibition at 30 µg/mL [4]: 60%; inhibition at 100 µg/mL [4]: 100%; inhibition at 1 µg/mL ([1]; rabbit PRP): 26%; inhibition at 10 µg/mL ([5]; 10 μg/ml): 10%; inhibition at 30 µg/mL [5]: 50%; inhibition at 100 µg/mL [5]: 88%; inhibition at 3 µg/mL ([3]; rabbit PRP, ADP 10^-5 M): 0%
O=C(Nc1ccccc1Cl)c1ccccc1SSc1ccccc1C(=O)Nc1ccccc1Cl [Compound X, 2,2'-dithiobis(N-o-chlorophenylbenzamide)] | 63 | ≥ 1000 | 24 |  | 4 | 100 | 0 | 96 | 
CN1CCN(C(=O)c2ccccc2SSc2ccccc2C(=O)N2CCN(C)CC2)CC1 [Compound XXXII, 2,2'-dithiobis(N'-methylbenzpiperazide)] | 100 |  | 100 | 59 | 90 |  | 62 |  | inhibition at 30 µg/mL [4]: 34%; inhibition at 100 µg/mL [4]: 100%; inhibition at 1 µg/mL ([1]; rabbit PRP): 2%; inhibition at 30 µg/mL [5]: 15%; inhibition at 100 µg/mL [5]: 60%; inhibition at 3 µg/mL ([3]; rabbit PRP, ADP 10^-5 M): 26%
CCCCN(CCCC)C(=O)c1ccccc1SSc1ccccc1C(=O)N(CCCC)CCCC [Compound VIII, 2,2'-dithiobis(N-dibutylbenzamide)] | 0 | ≥ 1000 | 0 |  |  | 13 |  | 9 | 
O=C(NC1CCCCC1)c1ccccc1SSc1ccccc1C(=O)NC1CCCCC1 [Compound XXVI, 2,2'-dithiobis(N-cyclohexylbenzamide)] | 25 | ≥ 1000 | 30 |  |  |  |  |  | 
CCCCNC(=O)c1ccccc1SSc1ccccc1C(=O)NCCCC [Compound I, 2,2'-dithiobis(N-n-butylbenzamide)] | 16.5 | ≥ 300 | 13.4 |  |  | 100 |  | 46.6 | 
O=C(c1ccccc1SSc1ccccc1C(=O)N1CCOCC1)N1CCOCC1 [Compound XXVII, 2,2'-dithiobis(benzmorpholide)] | 100 | ≥ 1000 | 100 | 59 | 100 |  | 60 |  | inhibition at 10 µg/mL [4]: 0%; inhibition at 30 µg/mL [4]: 35%; inhibition at 100 µg/mL [4]: 100%; inhibition at 1 µg/mL ([1]; rabbit PRP): 40%; inhibition at 30 µg/mL [5]: 5%; inhibition at 100 µg/mL [5]: 45%; inhibition at 3 µg/mL ([3]; rabbit PRP, ADP 10^-5 M): 40%
CCCCCCCCCCCCCCCC(=O)OCCCNC(=O)c1ccccc1SSc1ccccc1C(=O)NCCCOC(=O)CCCCCCCCCCCCCCC [Compound XXII, 2,2'-dithiobis(N-hexadecanoyloxypropylbenzamide)] | 0 |  | 0 |  |  | 18 |  | 40 | 
O=C(c1ccccc1SSc1ccccc1C(=O)N(c1ccccc1)c1ccccc1)N(c1ccccc1)c1ccccc1 [Compound XIII, 2,2'-dithiobis(N-diphenylbenzamide)] | 12.2 |  | 16 |  |  | 47 |  | 60 | 
O=C(NCCCCO)c1ccccc1SSc1ccccc1C(=O)NCCCCO [Compound XVII, 2,2'-dithiobis(N-4-hydroxybutylbenzamide)] | 100 |  | 45 | 0 | 97 | 100 |  | 100 | 
CCCCCCCCCCCCCCCCCCNC(=O)c1ccccc1SSc1ccccc1C(=O)NCCCCCCCCCCCCCCCCCC [Compound VII, 2,2'-dithiobis(N-octadecylbenzamide)] | 0 |  | 0 |  |  | 38 |  | 10 | 
O=C(NC(CO)(CO)CO)c1ccccc1SSc1ccccc1C(=O)NC(CO)(CO)CO [Compound XLI, 2,2'-dithiobis[N-2-hydroxy-1,1-di-(1'-hydroxymethyl)-ethylbenzamide]] | 7 | ≥ 1000 | 22 |  |  | 96 |  | 71 | 
CCCCCCCCCCCCCCCC(=O)OCCNC(=O)c1ccccc1SSc1ccccc1C(=O)NCCOC(=O)CCCCCCCCCCCCCCC [Compound XX, 2,2'-dithiobis(N-2-hexadecanoyloxyethylbenzamide)] | 0 |  | 0 |  |  | 33 |  | 23 | 
O=C(Nc1cccc(Cl)c1)c1ccccc1SSc1ccccc1C(=O)Nc1cccc(Cl)c1 [Compound XI, 2,2'-dithiobis(N-m-chlorophenylbenzamide)] | 99 |  | 29 |  | 0 | 100 | 0 | 96 | 
O=C(Nc1ccccc1[N+](=O)[O-])c1ccccc1SSc1ccccc1C(=O)Nc1ccccc1[N+](=O)[O-] [Compound XII, 2,2'-dithiobis(N-o-nitrophenylbenzamide)] |  | ≥ 1000 |  |  |  |  |  |  | inhibition at 30 µg/mL [1]: 45%; inhibition at 100 µg/mL [1]: 90%; inhibition at 30 µg/mL [3]: 20%; inhibition at 100 µg/mL [3]: 50%
CCOC(CN1CCN(C(=O)c2ccccc2SSc2ccccc2C(=O)N2CCN(CC(OCC)c3ccccc3)CC2)CC1)c1ccccc1 (centres unmarked) [Compound XXIX, 2,2'-dithiobis[N'-(2-phenyl-2-ethyloxyethyl)benzpiperazide]] | 100 | ≥ 1000 | 43 | 0 | 55 |  | 32 |  | 
O=C(c1ccccc1SSc1ccccc1C(=O)N1CCN(c2ccccc2)CC1)N1CCN(c2ccccc2)CC1 [Compound XXVIII, 2,2'-dithiobis(N'-phenylbenzpiperazide)] | 99 | ≥ 1000 | 55 | 14 | 55 |  | 19 |  | 
O=C(NCc1ccccc1)c1ccccc1SSc1ccccc1C(=O)NCc1ccccc1 [Compound II, 2,2'-dithiobis(N-benzylbenzamide)] |  | ≥ 300 |  |  |  | 1.2 |  | 2.7 | 
